Results published in BindingDB's records for doi:10.1016/j.bmcl.2009.01.090 (Gsk, 2009).

target: T1, Gag-Pol polyprotein [1148-1435] (Human immunodeficiency virus 1, UniProt P04585); assay: HIV Integrase Strand Transfer Scintillation Proximity Assay (SPA); conditions: pH 7.2; 37 °C
T1 construct: 1148-1435
Procedure: Purified recombinant integrase was first combined in a complex with biotinylated donor DNA- streptavidin-coated SPA beads. The complex was preincubated with the test compound, and strand transfer was initiated with a radiolabeled target DNA substrate. After incubation, the incorporated radioactivity was read in a Wallac MicroBeta scintillation plate reader using a counting protocol that corrected for optical cross talk between wells.

First: O=S1(=O)CCCCN1c1nc(-c2noc(Cc3ccc(F)cc3)n2)c(O)c2ncccc12 [2-(7-{5-[(4-fluorophenyl)methyl]-1,2,4-oxadiazol-3-yl}-8-hydroxy-1,6-naphthyridin-5-yl)-1,2-thiazinane-1,1-dione]
Second: O=C(NCc1ccc(F)cc1)c1nc(N2CCCCS2(=O)=O)c2cccnc2c1O [5-(1,1-dioxo-1,2-thiazinan-2-yl)-N-[(4-fluorophenyl)methyl]-8-hydroxy-1,6-naphthyridine-7-carboxamide]
The IC50 of the first is higher: > 100 µM for the first, 0.013 µM for the second. The second is the more potent here.

`Oc1c(-c2noc(-c3ccccc3)n2)ncc2cccnc12` [7-(5-phenyl-1,2,4-oxadiazol-3-yl)-1,6-naphthyridin-8-ol] and `Cn1nc(Cc2ccc(F)cc2)nc1-c1ncc2cccnc2c1O` [7-{3-[(4-fluorophenyl)methyl]-1-methyl-1H-1,2,4-triazol-5-yl}-1,6-naphthyridin-8-ol] cannot be ordered by IC50: > 100 µM for the first, > 500 µM for the second.
